Laboratory results as given in US20080311047A1, “Multimetric Biosensors and Methods of Using Same” (priority 2005, published 2008).

What was measured:
[1] = target: T1, FLIPW-CTY (eCFP-TrpR-Venus) (Escherichia coli, UniProt P0A881); experiment: In vitro FRET titration of FLIPW-CTY with tryptophan substrates; type: binding, E. coli; conditions: for Kd: 20 mM MOPS pH 7.0, read-out: Affinity of FLIPW-CTY for tryptophan substrate
T1 construct: made in house; host or cells: E. coli BL21(DE3)gold
Experimental: (§1) In Vitro Characterization of FLIPW and FLIPpur Sensors: Purified sensor was added to a dilution series of ligand in 20 mM MOPS pH 7.0 (FLIPW) or 20 mM MES pH7.0 (FLIPpur) in the range of 10^−2 to 10^−6 M and analyzed in a monochromator microplate reader (Safire, Tecan, Austria; excitation 433/12 nm, emission 485/12 and 528/12 nm). Protein was diluted to give Venus/eYFP readouts of 20,000 to 30,000 at a manual gain between 70-75. By using the change in FRET ratio upon binding of ligand, binding constants (Kd) were determined by fitting the substrate titration curves to a single-site-binding isotherm. Formulas for decrease in ratio upon ligand binding:
(§2) R=Rmax−(n·[S])/(Kd+[S])·(Rmax−Rmin)
(§3) with [S], substrate concentration; n, number of equal binding sites; R, ratio; Rmax, maximum ratio in the absence of ligand; and Rmin, minimum ratio at saturation with ligand. Formula for increase in ratio upon ligand binding:
(§4) R=Rmin+(Rmax−Rmin)·(n·[S])/(Kd+[S])
(§5) with [S], substrate concentration; n, number of equal binding sites; R, ratio; Rmax, maximum ratio at saturation with ligand; and Rmin, minimum ratio in absence of ligand. Three independent protein preparations were analyzed and each protein preparation was analyzed in triplicate.

human TAT1 = target: T2, human TAT1 (Homo sapiens, UniProt Q8TF71); conditions: human TAT1 in Xenopus oocytes (Kim et al. 2002); cited from earlier work
T2 construct: host or cells: Xenopus oocytes
T2 sequence (Q8TF71 1-515): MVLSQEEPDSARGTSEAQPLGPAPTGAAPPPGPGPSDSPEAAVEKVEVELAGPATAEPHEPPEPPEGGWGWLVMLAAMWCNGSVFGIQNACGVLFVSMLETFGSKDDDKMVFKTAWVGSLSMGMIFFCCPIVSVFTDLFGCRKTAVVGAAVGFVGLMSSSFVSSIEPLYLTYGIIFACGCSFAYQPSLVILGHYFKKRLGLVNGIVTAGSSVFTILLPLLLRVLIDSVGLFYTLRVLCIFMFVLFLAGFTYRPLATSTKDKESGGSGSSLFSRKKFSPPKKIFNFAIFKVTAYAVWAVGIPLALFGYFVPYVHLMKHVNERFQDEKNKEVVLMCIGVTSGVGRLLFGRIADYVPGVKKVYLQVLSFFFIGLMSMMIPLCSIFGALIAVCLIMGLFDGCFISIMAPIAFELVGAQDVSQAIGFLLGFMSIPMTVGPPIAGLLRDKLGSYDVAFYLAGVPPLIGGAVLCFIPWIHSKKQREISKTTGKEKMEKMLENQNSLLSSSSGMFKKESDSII

COS-7 cells [2] = conditions: read-out: apparent KM for combined transport and metabolism
Experimental: (§6) Tissue Culture and Transfection: For cytosolic expression in COS-7 cells, the gene encoding CTYT was amplified by PCR with primers encoding unique BamHI and EcoRI restriction sites at the 5′ and 3′ end, respectively, and cloned into BamHI/EcoRI digested pcDNA3.1(+) vector (Invitrogen), resulting in plasmid pTK222. COS-7 cells were grown in Dulbecco's modified Eagle's medium (high glucose; DMEM, Gibco) with 10% fetal calf serum and 50 μg/ml penicillin and streptomycin (Gibco). Cells were cultured at 37° C. and 5% CO2. For imaging, cells were cultured in 8-well LabTekII German tissue culture glass slides (Nalg Nunc International) and transiently transfected at 50-70% confluence using Lipofectamine 2000 Reagent (Invitrogen) in Opti-MEM I reduced serum medium (Gibco). After transfection, cells were cultured for 16 hours in Opti-MEM followed by 3 hours in DMEM prior to imaging.
(§7) Microplate Assays: Adherent cells in 96-well microplates were washed once with 100 μl Tyrode's buffer (119 mM NaCl, 2.5 mM KCl, 2 mM CaCl2, 2 mM MgCl2, 25 mM HEPES, 30 mM glucose, pH 7.3-7.4).

[3] = target: T3, FLIPW-CTYT (eCFP-TrpR-Venus-TrpR) (Escherichia coli, UniProt P0A881); experiment: In vitro FRET titration of FLIPW-CTYT with tryptophan substrates; type: binding, E. coli; conditions: 20 mM MOPS pH 7.0; read-out: Affinity of FLIPW-CTYT for tryptophan substrate
T3 construct: The gene products of pTK203, pTK204, and pTK205 were denoted FLIPW-TCTY, FLIPW-CTYT, and FLIPW-CTTY, respectively; made in house; host or cells: E. coli BL21(DE3)gold
Experimental: as §1, §2, §3, §4, §5

LAT2 = target: T4, LAT2 (Homo sapiens, UniProt Q9UHI5); conditions: LAT2 in Xenopus oocytes (Pineda et al. 1999); cited from earlier work
T4 construct: host or cells: Xenopus oocytes
T4 sequence (Q9UHI5 1-535): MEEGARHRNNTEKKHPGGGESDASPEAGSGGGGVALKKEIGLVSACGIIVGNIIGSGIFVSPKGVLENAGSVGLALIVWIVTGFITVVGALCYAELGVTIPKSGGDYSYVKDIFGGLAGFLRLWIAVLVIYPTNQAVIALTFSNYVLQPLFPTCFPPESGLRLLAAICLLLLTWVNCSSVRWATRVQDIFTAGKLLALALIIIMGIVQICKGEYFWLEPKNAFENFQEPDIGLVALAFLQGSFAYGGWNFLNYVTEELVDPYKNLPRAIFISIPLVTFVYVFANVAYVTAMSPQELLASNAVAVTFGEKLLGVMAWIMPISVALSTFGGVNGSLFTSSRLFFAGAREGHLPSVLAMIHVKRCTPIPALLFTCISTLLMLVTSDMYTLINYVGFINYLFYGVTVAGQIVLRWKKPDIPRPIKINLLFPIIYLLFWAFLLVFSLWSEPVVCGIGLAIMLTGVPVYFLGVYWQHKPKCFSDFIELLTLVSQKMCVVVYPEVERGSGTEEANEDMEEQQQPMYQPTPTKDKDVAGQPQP

COS-7 cells [4] = experiment: tryptophan uptake by COS-7 cell cultures in 96-well microplates monitored with FLIPW-CTYT; type: cell-based, monkey; conditions: in words
Experimental: as §6, §7

[5] = system: E. coli tryptophan operon repressor TrpR, wild-type, SEQ ID NO: 1; conditions: Marmorstein et al. 1987; cited from earlier work
[6] = target: FLIPW-CTY (eCFP-TrpR-Venus fusion of E. coli tryptophan repressor TrpR, SEQ ID NO: 3) (Escherichia coli, UniProt P0A881); experiment: L-tryptophan analog titration of FLIPW-CTY by FRET ratio change, single-site-binding isotherm; conditions: FLIPW-CTY Kd compared with free TrpR (Marmorstein et al. 1987); larger than free TrpR
From the text: The protein sequence encoded on pTK164 was denoted FLIPW-CTY.

[7] = target: FLIPW-TCTY (TrpR-eCFP-TrpR-Venus fusion of E. coli tryptophan repressor TrpR, SEQ ID NO: 5) (Escherichia coli, UniProt P0A881); experiment: L-tryptophan titration of FLIPW-TCTY by FRET ratio change; conditions: 20 mM MOPS pH 7.0, apparent binding constant
[8] = system: E. coli purine repressor PurR variant Arg190Gln; conditions: Lu et al. 1998; cited from earlier work
[9] = target: T5, FLIPpur (His6-eCFP-PurR-eYFP fusion of E. coli purine repressor PurR, residues 56 to 341, Arg190Gln, Leu263Pro) (Escherichia coli, UniProt P0ACP7, L263P/R190Q); experiment: hypoxanthine titration of FLIPpur by FRET ratio change; type: binding
T5 construct: expressed in E. coli BL21(DE3)gold, purified
T5 sequence (P0ACP7 56-341 R190Q/L263P): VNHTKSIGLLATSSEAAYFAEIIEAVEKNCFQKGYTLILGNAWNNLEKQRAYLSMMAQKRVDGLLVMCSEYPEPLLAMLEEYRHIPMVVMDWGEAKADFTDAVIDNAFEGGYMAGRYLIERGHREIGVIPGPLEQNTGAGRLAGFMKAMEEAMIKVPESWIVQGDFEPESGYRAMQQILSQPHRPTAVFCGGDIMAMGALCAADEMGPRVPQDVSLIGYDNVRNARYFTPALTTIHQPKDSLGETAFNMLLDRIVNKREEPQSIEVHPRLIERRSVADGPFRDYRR
From the text: FLIPW and FLIPpur constructs were harbored in E. coli BL21(DE3)gold and sensor proteins were produced and purified as described previously (Fehr et al. 2002).

For N[C@H](Cc1c[nH]c2ccccc12)C(=O)O [D-tryptophan], the Kd [1] was 3100 ± 300 µM and the “Concentration giving decrease of FRET ratio relative to L-tryptophan” value ([1]; titration of FLIPW-CTY, higher concentrations than L-tryptophan) was “about 5 fold”.
Work on N[C@@H](Cc1c[nH]c2ccc(O)cc12)C(=O)O [L-5-hydroxy-tryptophan] yielded a Kd [1] of 6000 ± 800 µM.
In the case of Cc1ccc2[nH]cc(C[C@H](N)C(=O)O)c2c1 [L-5-methyl-tryptophan], the Kd [1] is reported as 60 ± 10 µM.
For N[C@@H](Cc1c[nH]c2ccccc12)C(=O)O [L-tryptophan], the Tryptophan uptake affinity (human TAT1) is listed as 450 µM, the Km (COS-7 cells [2]) is listed as 0.88 ± 0.27 µM and the Kd [3] is listed as 210 ± 20 µM. For the same molecule, the Tryptophan uptake affinity (LAT2) was 58 µM, the “effective KM for combined tryptophan uptake and metabolism” value (COS-7 cells [4]) was “in the micromolar range” and the affinity [5] was “micromolar affinity”. The Kd [1] was 220 ± 20 µM, the “apparent Kd relative to free TrpR” value [6] was “about an order of magnitude” and the Kd [7] was 20 µM.
For O=c1[nH]cnc2nc[nH]c12 [hypoxanthine], the “Kd of free PurR Arg190Gln compared with FLIPpur” value [8] is given as “identical to that of free PurR Arg190Gln” and the Kd [9] is given as 5.6 ± 0.7 µM.
